According to patent US5589485A, “Dorrigocin antitumor agents” (priority 1995, dated 1996):
Converted amounts (≈) assume the structure as drawn. Read-outs that look alike come from different tables or passages of the source.

Key:
[1] = test system: K-ras-transformed NIH/3T3 mouse fibroblasts; assay: In vitro antitumor activity: transformed foci / morphology reversion; assay type: cell-based; conditions: for activity at 0.4 µg/mL: compound dose 0.4 μg/ml; for morphology reversion of transformed cells: microscopic examination
Protocol: Transformed cells are typically rounded when the mutant ras gene is expressed. Normal cells, on the other hand, are flat and adhere to the bottom of a tissue culture plate.
Normal and transformed NIH/3T3 cells were cultured in Dulbecco's modified Eagle medium containing 10% fetal bovine serum, and gentamicin 50 μg/ml at 37° C. in 5% CO2. Ras transformants also contained […] G418. To test the effect of Dorrigocins, 2×10^4 cells were added to 24 well microtiter plates and incubated for 24 hours at 37° C. when the cells had uniformly adhered to the microtiter tray, various concentrations of Dorrigocin A and B dissolved in DMSO, were added and the plates incubated at 37° C. for an additional 48 hours. Cellular morphology was examined microscopically and the average number of transformed foci per field was determined by counting at least 6 separate fields. These foci represent transformed cells that were unaffected by the addition of compound.

[2] = test system: Candida albicans ATCC 38247; assay: In vitro antifungal activity, agar dilution MIC; assay type: cell-based
Protocol: (§1) Minimal inhibitory concentrations (MICs) were determined by an agar dilution method. The test compounds were serially diluted in MeOH and 0.2 ml portions were mixed with 20 ml of molten, cooled Sabouraud dextrose agar (Difco). Yeast cell inoculum was prepared by growing cultures on Sabouraud dextrose agar for 18 hours at 32° C. and suspending the cells in phosphate buffered saline. Filamentous fungi were grown under the same conditions for 4 days to obtain spores. The inoculum level for all cultures was adjusted to 10^4 cells using a Petroff-Hauser cell counter. The glutarimide antifungal compound cycloheximide was used as a control. Inoculated test plates were incubated at 32° C. and examined after 20 hours.

Candida albicans 579A = assay: In vitro antifungal activity, agar dilution MIC; assay type: cell-based
Protocol: as §1

A. fumigatus ATCC 26430 = assay: In vitro antifungal activity, agar dilution MIC; assay type: cell-based; conditions: Aspergillus fumigatus
Protocol: as §1

F. solani AARC 0353 = assay: In vitro antifungal activity, agar dilution MIC; assay type: cell-based; conditions: Fusarium solani
Protocol: as §1

[3] = test system: A. parasiticus NRRL 13539; assay: In vitro antifungal activity, agar dilution MIC; assay type: cell-based; conditions: Aspergillus parasiticus
Protocol: as §1

[4] = test system: Candida albicans ATCC 10231; assay: In vitro antifungal activity, agar dilution MIC; assay type: cell-based
Protocol: as §1

A. flavus NRRL 6541 = assay: In vitro antifungal activity, agar dilution MIC; assay type: cell-based; conditions: Aspergillus flavus
Protocol: as §1

[5] = test system: Torulopsis glabrata ATCC 15545; assay: In vitro antifungal activity, agar dilution MIC; assay type: cell-based; conditions: Nakaseomyces glabratus
Protocol: as §1

[6] = test system: Candida tropicalis NRRL-Y-112; assay: In vitro antifungal activity, agar dilution MIC; assay type: cell-based
Protocol: as §1

[7] = test system: Aspergillus niger ATCC 16404; assay: In vitro antifungal activity, agar dilution MIC; assay type: cell-based
Protocol: as §1

[8] = test system: Saccharomyces cereviseae GS1-36; assay: In vitro antifungal activity, agar dilution MIC; assay type: cell-based
Protocol: as §1

[9] = test system: Fusarium moniliforme AARC 0397; assay: In vitro antifungal activity, agar dilution MIC; assay type: cell-based; conditions: Fusarium verticillioides
Protocol: as §1

Solubility = assay type: physicochemical
[10] = Mus musculus, NIH3T3, 48 hours, untreated NIH/3T3 K-ras = 100, read-out: Transformed foci percentage
[11] = ATCC38247, Sabouraud dextrose agar, 32° C., 20 hours, read-out: MIC
[12] = Sabouraud dextrose agar, 32° C., 20 hours, read-out: MIC
[13] = ATCC26430, Sabouraud dextrose agar, 32° C., 20 hours, read-out: MIC
[14] = AARC0353, Sabouraud dextrose agar, 32° C., 20 hours, read-out: MIC
[15] = NRRL13539, Sabouraud dextrose agar, 32° C., 20 hours, read-out: MIC
[16] = ATCC10231, Sabouraud dextrose agar, 32° C., 20 hours, read-out: MIC
[17] = NRRL6541, Sabouraud dextrose agar, 32° C., 20 hours, read-out: MIC
[18] = ATCC15545, Sabouraud dextrose agar, 32° C., 20 hours, read-out: MIC
[19] = NRRLY112, Sabouraud dextrose agar, 32° C., 20 hours, read-out: MIC
[20] = ATCC16404, Sabouraud dextrose agar, 32° C., 20 hours, read-out: MIC
[21] = GS136, Sabouraud dextrose agar, 32° C., 20 hours, read-out: MIC
[22] = AARC0397, Sabouraud dextrose agar, 32° C., 20 hours, read-out: MIC

SMILES	dose dependence of morphology reversion ([1]; 48 hours)	activity at 0.4 µg/mL [1, 10] [%]	morphology reversion of transformed cells ([1]; 48 hours)	MIC [2, 11] [µg/mL]	MIC (Candida albicans 579A; [12]) [µg/mL]	MIC (A. fumigatus ATCC 26430; [13]) [µg/mL]	MIC (F. solani AARC 0353; [14]) [µg/mL]	MIC [3, 15] [µg/mL]	MIC [4, 16] [µg/mL]	MIC (A. flavus NRRL 6541; [17]) [µg/mL]	MIC [5, 18] [µg/mL]	MIC [6, 19] [µg/mL]	MIC [7, 20] [µg/mL]	MIC [8, 21] [µg/mL]	MIC [9, 22] [µg/mL]	solubility in methanol and dimethylsulfoxide (Solubility)	other results
COC(C=CCCC=CC(=O)O)C(O)C(C)C=C(C)C(O)C(C)C(=O)CCCC1CC(=O)NC(=O)C1 (stereo not drawn) [Dorrigocin A]	dose-dependent	26	caused transformed cells to revert to a morphology resembling that of normal cells	> 100	> 100	25 (≈ 49.2 µM)	25 (≈ 49.2 µM)	> 100	> 100	> 100	> 100	> 100	25 (≈ 49.2 µM)	> 100	100 (≈ 197 µM)	readily soluble in methanol and dimethylsulfoxide	relative effectiveness in morphology reversion and reduction in the number of foci ([1]; Dorrigocin A compared with Dorrigocin B): more effective than Dorrigocin B; activity at 0.08 µg/mL ([1]; Mus musculus, NIH3T3, compound dose 0.08 μg/ml, 48 hours, untreated NIH/3T3 K-ras = 100, read-out: Transformed foci percentage): 76%; activity at 10 µg/mL ([1]; Mus musculus, NIH3T3, compound dose 10 μg/ml, 48 hours, untreated NIH/3T3 K-ras = 100, read-out: Transformed foci percentage): 22%
C[C@@H]1C[C@@H]([C@H](O)CC2CC(=O)NC(=O)C2)C(=O)[C@@H](C)C1 [Cycloheximide, cycloheximide, reference compound]	–	–	–	–	–	–	–	–	–	–	–	–	–	–	–	–	MIC ([2]; ATCC38247, 20 h): > 100 µg/mL; MIC (Candida albicans 579A; 20 h): > 100 µg/mL; MIC (A. fumigatus ATCC 26430; ATCC26430, 20 h): 1.6 µg/mL (≈ 5.69 µM); MIC (F. solani AARC 0353; AARC0353, 20 h): 0.8 µg/mL (≈ 2.84 µM); MIC ([3]; NRRL13539, 20 h): 25 µg/mL (≈ 88.9 µM); MIC ([4]; ATCC10231, 20 h): > 100 µg/mL; MIC (A. flavus NRRL 6541; NRRL6541, 20 h): 50 µg/mL (≈ 178 µM); MIC ([5]; ATCC15545, 20 h): 0.4 µg/mL (≈ 1.42 µM); MIC ([6]; NRRLY112, 20 h): 0.4 µg/mL (≈ 1.42 µM); MIC ([7]; ATCC16404, 20 h): 1.6 µg/mL (≈ 5.69 µM); MIC ([8]; GS136, 20 h): < 0.05 µg/mL; MIC ([9]; AARC0397, 20 h): 0.8 µg/mL (≈ 2.84 µM)
COC(C=CCCC=CC(=O)O)C(O)C(C)C(O)C(C)=CC(C)C(=O)CCCC1CC(=O)NC(=O)C1 (stereo not drawn) [Dorrigocin B]	dose-dependent	96	caused transformed cells to revert to a morphology resembling that of normal cells	> 100	> 100	12.5 (≈ 24.6 µM)	25 (≈ 49.2 µM)	100 (≈ 197 µM)	> 100	100 (≈ 197 µM)	> 100	> 100	12.5 (≈ 24.6 µM)	> 100	50 (≈ 98.5 µM)	readily soluble in methanol and dimethylsulfoxide	activity at 10 µg/mL ([1]; Mus musculus, NIH3T3, 48 h, read-out: Transformed foci percentage): 7%
